The target in this assay is T1, Bcl-2 protein (Recombinant Human Bcl-2 Protein) (Homo sapiens, UniProt P10415).
T1 construct: purchased Novus NBP2-34889
Put plainly: Binding evaluation of mixture library compounds to Bcl-2 using AS-MS (affinity selection mass spectrometry). To be noted: for ASMS ratio (%) n = 1 / ASMS ratio (%) n = 2: ASMS Ratio(%)=(A−C)/B×100; for ASMS ratio (%) n = 1: replicate n = 1; for ASMS ratio (%) n = 2: replicate n = 2. Put shortly:
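ASMS Ratio (%) was calculated as (A−C)/B×100, where A is the protein sample after SEC, B the protein-free sample without SEC and C the protein-free sample after SEC. Each compound was at […] in a 1200-member pool with 20 μM Bcl-2, incubated 1 h at 23° C.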

Setting [1] is: AS-MS, mixture of 1200 compounds, Bcl-2.
The mark [2] stands for this setting: AS-MS on the mixture of 1200 library compounds.

Consider 25 molecules from US20240132431A1, “METHOD FOR ALKYLATING ACIDIC FUNCTIONAL GROUP” (Chugai Seiyaku Kabushiki Kaisha, priority 2021, published 2024).

T1 sequence (P10415 whole entry): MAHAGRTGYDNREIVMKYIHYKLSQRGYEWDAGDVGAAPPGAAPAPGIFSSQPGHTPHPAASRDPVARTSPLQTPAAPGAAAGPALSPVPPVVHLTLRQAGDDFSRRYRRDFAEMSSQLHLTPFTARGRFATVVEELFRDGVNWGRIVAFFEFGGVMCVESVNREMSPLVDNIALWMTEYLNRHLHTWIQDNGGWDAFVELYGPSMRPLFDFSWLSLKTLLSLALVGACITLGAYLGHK

On to `CCOc1cccc(C#Cc2ccccc2CN2CCN(c3ccc(C(=O)NS(=O)(=O)CCC(F)(F)F)cc3)CC2)c1` [B2N069-01, 4-[4-[[2-[2-(3-Ethoxyphenyl)ethynyl]phenyl]methyl]piperazin-1-yl]-N-(3,3,3-trifluoropropylsulfonyl)benzamide], for which the “ASMS ratio (%)” value is on record as −1.8% (n = 1) and −1.5% (n = 2).
For `CCOc1cncc(C#Cc2cc(C(=O)N3CCN(c4ccc(C(=O)NS(C)(=O)=O)cc4)CC3)cc(C(F)(F)F)c2)c1` [B2I042-01, 4-[4-[3-[2-(5-Ethoxypyridin-3-yl)ethynyl]-5-(trifluoromethyl)benzoyl]piperazin-1-yl]-N-methylsulfonylbenzamide], the “ASMS ratio (%)” value runs as follows: (n = 1) 0.0%; (n = 2) 0.0%.
`CCOc1cncc(-c2ccc(C(=O)N3CCN(c4ccc(C(=O)NCC(F)(F)F)cc4)CC3)cc2F)c1` [B1K028-01, 4-[4-[4-(5-Ethoxypyridin-3-yl)-3-fluorobenzoyl]piperazin-1-yl]-N-(2,2,2-trifluoroethyl)benzamide]: under setting [1], the “ASMS ratio (%) n = 1” value was found to be 0.0% and the “ASMS ratio (%) n = 2” value is on record as 0.0%.
`CCOc1cccc(-c2cc(CN3CCN(c4ccc(C(=O)NS(=O)(=O)c5ccc(NCCSc6ccccc6)c(C(F)(F)F)c5)nn4)CC3)cc(OC(C)C)c2)c1` [B2R083-01, 6-[4-[[3-(3-Ethoxyphenyl)-5-propan-2-yloxyphenyl]methyl]piperazin-1-yl]-N-[4-(2-phenylsulfanylethylamino)-3-(trifluoromethyl)phenyl]sulfonylpyridazine-3-carboxamide]: the “ASMS ratio (%)” value (n = 1) turned out to be 31.9% and the “ASMS ratio (%)” value (n = 2) was −11.1%.
For `CCOc1cccc(-c2csc(CN3CCN(c4ccc(C(=O)NCC56CC7CC(CC(C7)C5)C6)cc4)CC3)c2)c1` [B1A067-01, N-(1-Adamantylmethyl)-4-[4-[[4-(3-ethoxyphenyl)thiophen-2-yl]methyl]piperazin-1-yl]benzamide], under setting [1], the “ASMS ratio (%) n = 1” value turned out to be 3.6% and the “ASMS ratio (%) n = 2” value is listed as −7.8%.
Regarding “4-[4-[[3-(3-Ethoxyphenyl)-5-(trifluoromethyl)phenyl]methyl]piperazin-1-yl]-N-propylbenzamide [B1M026-01]”, under setting [1], the “ASMS ratio (%) n = 1” value amounted to 0.9% and the “ASMS ratio (%) n = 2” value is given as 0.9%.
Take `CCOc1cccc(-c2ccc(C(=O)N3CCN(c4ccc(C(=O)NS(=O)(=O)c5ccc(NCCSc6ccccc6)c([N+](=O)[O-])c5)cc4)CC3)cc2C)c1` [B2Q025-01, 4-[4-[4-(3-Ethoxyphenyl)-3-methylbenzoyl]piperazin-1-yl]-N-[3-nitro-4-(2-phenylsulfanylethylamino)phenyl]sulfonylbenzamide]: for the setting “AS-MS, mixture library, Bcl-2”, the “ASMS ratio (%) n = 1” value was −5.7% and the “ASMS ratio (%) n = 2” value worked out at 0.0%.
For `CCOc1cncc(-c2cc(CN3CCN(c4ccc(C(=O)NS(=O)(=O)CCC(F)(F)F)nn4)CC3)cc(C(F)(F)F)c2)c1` [B2N088-01, 6-[4-[3-(5-Ethoxypyridin-3-yl)-5-(trifluoromethyl)phenylmethyl]piperazin-1-yl]-N-(3,3,3-trifluoropropylsulfonyl)pyridazine-3-carboxamide], the “ASMS ratio (%)” value is listed as 0.0% (n = 1) and 0.0% (n = 2).
`CCOc1cccc(-c2ccc(CN3CCN(c4ccc(C(=O)NS(C)(=O)=O)cc4)CC3)cc2F)c1` [B2I051-01, 4-[4-[[4-(3-Ethoxyphenyl)-3-fluorophenyl]methyl]piperazin-1-yl]-N-methylsulfonylbenzamide]: the “ASMS ratio (%)” value turned out to be 0.0% (n = 1) and 0.0% (n = 2).
Turning to `CCOc1cncc(-c2cc(C(=O)N3CCN(c4ccc(C(=O)NS(=O)(=O)c5ccc(NCCSc6ccccc6)c([N+](=O)[O-])c5)cc4)CC3)cc(C(C)(C)C)c2)c1` [B2Q038-01, 4-[4-[3-tert-Butyl-5-(5-ethoxypyridin-3-yl)benzoyl]piperazin-1-yl]-N-[3-nitro-4-(2-phenylsulfanylethylamino)phenyl]sulfonylbenzamide], under “AS-MS, mixture library, Bcl-2”, the “ASMS ratio (%) n = 1” value came out at 3.3% and the “ASMS ratio (%) n = 2” value stood at 0.4%.
`CCOc1cccc(-c2cc(CN3CCN(c4ccc(C(=O)NS(=O)(=O)CCC(F)(F)F)nn4)CC3)cc(C(F)(F)F)c2)c1` [B2N087-01]: the “ASMS ratio (%)” value is, setting by setting: (n = 1) 0.0%; (n = 2) 0.0%.
For `CCOc1cccc(C#Cc2cncc(C(=O)N3CCN(c4ccc(C(=O)NS(=O)(=O)CCC(F)(F)F)cc4)CC3)c2)c1` [B2N031-01, 4-[4-[5-[2-(3-Ethoxyphenyl)ethynyl]pyridine-3-carbonyl]piperazin-1-yl]-N-(3,3,3-trifluoropropylsulfonyl)benzamide], the “ASMS ratio (%)” value (n = 1) came out at 0.0% and the “ASMS ratio (%)” value (n = 2) was 0.0%.
For `CCOc1cncc(-c2ccc(CN3CCN(c4ccc(C(=O)NS(=O)(=O)CCC(F)(F)F)cc4)CC3)c(CC)c2)c1` [B2N050-01, 4-[4-[[4-(5-Ethoxypyridin-3-yl)-2-ethylphenyl]methyl]piperazin-1-yl]-N-(3,3,3-trifluoropropylsulfonyl)benzamide], the “ASMS ratio (%)” value (n = 1) came out at 0.0%.
On to `CCOc1cccc(-c2ccc(CN3CCN(c4ccc(C(=O)NCC56CC7CC(CC(C7)C5)C6)cc4)CC3)cc2F)c1` [B1A051-01, N-(1-Adamantylmethyl)-4-[4-[[4-(3-ethoxyphenyl)-3-fluorophenyl]methyl]piperazin-1-yl]benzamide], for which, under setting [1], the “ASMS ratio (%) n = 1” value was −5.4% and the “ASMS ratio (%) n = 2” value is reported as −4.2%.
Taken in the same sequence, the figures for “4-[4-[[4-(5-Ethoxypyridin-3-yl)naphthalen-1-yl]methyl]piperazin-1-yl]-N-propylbenzamide [B1M046-01]” were 0.7% and −1.2%.
For the molecule `CCOc1cccc(C#Cc2cc(C(=O)N3CCN(c4ccc(C(=O)Nc5ccc(OC)cc5)cc4)CC3)cc(C(F)(F)F)c2)c1` [B1O041-01, 4-[4-[3-[2-(3-Ethoxyphenyl)ethynyl]-5-(trifluoromethyl)benzoyl]piperazin-1-yl]-N-(4-methoxyphenyl)benzamide], under setting [2], the “ASMS ratio (%) n = 1” value came to 10.4% and the “ASMS ratio (%) n = 2” value is recorded as −2.8%.
As to `CCOc1cccc(-c2ccc(C(=O)N3CCN(c4ccc(C(=O)N(C)CC56CC7CC(CC(C7)C5)C6)cc4)CC3)cc2F)c1` [B3A027-01, N-(1-Adamantylmethyl)-4-[4-[4-(3-ethoxyphenyl)-3-fluorobenzoyl]piperazin-1-yl]-N-methylbenzamide], under setting [2], the “ASMS ratio (%) n = 1” value is −0.7% and the “ASMS ratio (%) n = 2” value is −1.6%.
`CCOc1cncc(-c2ccc(C(=O)N3CCN(c4ccc(C(=O)NS(=O)(=O)CC56CC7CC(CC(C7)C5)C6)nn4)CC3)c3ccccc23)c1` [B2A014-01, N-(1-Adamantylmethylsulfonyl)-6-[4-[4-(5-ethoxypyridin-3-yl)naphthalene-1-carbonyl]piperazin-1-yl]pyridazine-3-carboxamide]: for the setting “AS-MS, mixture library, Bcl-2”, the “ASMS ratio (%) n = 1” value was found to be 7.7% and the “ASMS ratio (%) n = 2” value turned out to be 2.2%.
Turning to `CCOc1cncc(-c2ccc(C(C)N3CCN(c4ccc(C(=O)NS(C)(=O)=O)cc4)CC3)c(F)c2)c1` (stereo not shown) [B2I100-01, 4-[4-[1-[4-(5-Ethoxypyridin-3-yl)-2-fluorophenyl]ethyl]piperazin-1-yl]-N-methylsulfonylbenzamide], the “ASMS ratio (%)” value runs as follows: (n = 1) 0.0%; (n = 2) 0.0%.
With `CCOc1cccc(-c2cc(CN3CCN(c4ccc(C(=O)NCC(F)(F)F)nn4)CC3)cc(OC(C)C)c2)c1` [B1K083-01], under setting [1], the “ASMS ratio (%) n = 1” value is listed as 0.0% and the “ASMS ratio (%) n = 2” value was determined as 0.0%.
As for `CCOc1cncc(-c2ccc(C(=O)N3CCN(c4ccc(C(=O)N(C)CC56CC7CC(CC(C7)C5)C6)nn4)CC3)cc2F)c1` [B3A006-01, N-(1-Adamantylmethyl)-6-[4-[4-(5-ethoxypyridin-3-yl)-3-fluorobenzoyl]piperazin-1-yl]-N-methylpyridazine-3-carboxamide], under setting [2], the “ASMS ratio (%) n = 1” value is recorded as 0.0% and the “ASMS ratio (%) n = 2” value came to 0.0%.
With `CCOc1cccc(-c2cc(CN3CCN(c4ccc(C(=O)NCC(F)(F)F)cc4)CC3)cc(C(F)(F)F)c2)c1` [B1K061-01, 4-[4-[[3-(3-Ethoxyphenyl)-5-(trifluoromethyl)phenyl]methyl]piperazin-1-yl]-N-(2,2,2-trifluoroethyl)benzamide], under setting [1], the “ASMS ratio (%) n = 1” value is 2.8% and the “ASMS ratio (%) n = 2” value is −1.3%.
Taken in the same sequence, the figures for `CCOc1cncc(-c2ccccc2CCC(=O)N2CCN(c3ccc(C(=O)NCC(F)(F)F)nn3)CC2)c1` [B1K012-01, 6-[4-[3-[2-(5-Ethoxypyridin-3-yl)phenyl]propanoyl]piperazin-1-yl]-N-(2,2,2-trifluoroethyl)pyridazine-3-carboxamide] were 0.0% and −0.4%.
As for `CCOc1cccc(-c2ccc(CN3CCN(c4ccc(C(=O)NS(C)(=O)=O)cc4)CC3)c(CC)c2)c1` [B2I049-01, 4-[4-[[4-(3-Ethoxyphenyl)-2-ethylphenyl]methyl]piperazin-1-yl]-N-methylsulfonylbenzamide], the “ASMS ratio (%)” value reads like this: (n = 1) 0.0%; (n = 2) 0.0%.
In the case of “6-[4-[[3-(5-Ethoxypyridin-3-yl)-5-(trifluoromethyl)phenyl]methyl]piperazin-1-yl]-N-propylpyridazine-3-carboxamide [B1M029-01]”, under setting [1], the “ASMS ratio (%) n = 1” value was 3.0% and the “ASMS ratio (%) n = 2” value is −0.6%.
